These results are taken from US7494714B2, “Surfaces that resist the adsorption of biological species” (President & Fellows of Harvard College, priority 2000, dated 2009).

By Kd is commonly meant a measure of binding affinity in units of concentration.

One data set deals with CA (Bos taurus, UniProt P00921). As to conditions: soluble ligand; cited from earlier work.
Data set [1] has as its target T1, Carbonic anhydrase II (bovine) (Bos taurus, UniProt P00921).
T1 construct: purchased Sigma (St. Louis, Mo.)
Kind of data set: SPR binding of CA to immobilised benzene sulfonamide ligands.
Protocol: Curve 1: CA (5 μM) with a mixture of proteins (each at 0.2 mg/mL) including fibrinogen, RNase, lysozyme, and myoglobin; Curve 2: CA (5 μM); Curve 3: a mixture of proteins as in 1 without CA; Curve 4: CA (5 μM) with 1 mM soluble benzenesulfonamide ligand.

For data set [2], the system named is mixture of fibrinogen, myoglobin, lysozyme, and RNase. As to the kind of experiment: SPR nonspecific adsorption from a mixture of proteins. The format is binding. As to conditions: mixed SAM presenting 13 and —CONH(CH2CH2O)6H/—CO2H groups.
A short description of data set [3]: Contact angle of deionized water under cyclooctane. Format: physicochemical. As to conditions: mixed SAM.
For the next data set, the target named is T2, fibrinogen (Bos taurus, UniProt P02672+P02676+P12799).
T2 sequence (P02672 20-615): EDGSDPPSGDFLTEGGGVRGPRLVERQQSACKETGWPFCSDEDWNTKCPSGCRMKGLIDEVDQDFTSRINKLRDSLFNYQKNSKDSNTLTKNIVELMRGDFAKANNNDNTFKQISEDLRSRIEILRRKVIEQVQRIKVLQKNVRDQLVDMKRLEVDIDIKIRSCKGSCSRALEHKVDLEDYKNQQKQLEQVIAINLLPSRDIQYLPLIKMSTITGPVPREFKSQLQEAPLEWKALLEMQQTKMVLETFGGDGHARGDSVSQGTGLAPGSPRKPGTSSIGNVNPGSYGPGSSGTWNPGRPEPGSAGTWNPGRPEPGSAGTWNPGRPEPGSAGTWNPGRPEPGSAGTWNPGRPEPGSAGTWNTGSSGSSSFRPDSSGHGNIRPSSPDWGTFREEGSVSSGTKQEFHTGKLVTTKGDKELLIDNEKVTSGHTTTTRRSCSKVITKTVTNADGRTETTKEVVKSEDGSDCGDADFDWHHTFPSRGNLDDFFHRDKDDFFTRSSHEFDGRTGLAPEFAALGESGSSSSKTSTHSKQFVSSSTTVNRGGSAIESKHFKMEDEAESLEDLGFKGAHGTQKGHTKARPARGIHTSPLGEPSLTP
T2 sequence (P02676 1-468): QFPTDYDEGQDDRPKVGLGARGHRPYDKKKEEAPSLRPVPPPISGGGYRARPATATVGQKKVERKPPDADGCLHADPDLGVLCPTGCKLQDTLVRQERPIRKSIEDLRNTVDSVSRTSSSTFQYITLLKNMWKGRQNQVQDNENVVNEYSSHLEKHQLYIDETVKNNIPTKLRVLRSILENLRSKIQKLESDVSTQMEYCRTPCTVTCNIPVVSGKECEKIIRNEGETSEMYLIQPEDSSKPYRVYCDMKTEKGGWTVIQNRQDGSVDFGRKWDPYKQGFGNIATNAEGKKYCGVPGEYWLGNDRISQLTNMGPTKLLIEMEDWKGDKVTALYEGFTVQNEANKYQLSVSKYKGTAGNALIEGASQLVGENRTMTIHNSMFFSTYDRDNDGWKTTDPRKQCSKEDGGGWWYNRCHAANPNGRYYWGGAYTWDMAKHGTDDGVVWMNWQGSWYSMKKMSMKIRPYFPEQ
T2 sequence (P12799 25-444): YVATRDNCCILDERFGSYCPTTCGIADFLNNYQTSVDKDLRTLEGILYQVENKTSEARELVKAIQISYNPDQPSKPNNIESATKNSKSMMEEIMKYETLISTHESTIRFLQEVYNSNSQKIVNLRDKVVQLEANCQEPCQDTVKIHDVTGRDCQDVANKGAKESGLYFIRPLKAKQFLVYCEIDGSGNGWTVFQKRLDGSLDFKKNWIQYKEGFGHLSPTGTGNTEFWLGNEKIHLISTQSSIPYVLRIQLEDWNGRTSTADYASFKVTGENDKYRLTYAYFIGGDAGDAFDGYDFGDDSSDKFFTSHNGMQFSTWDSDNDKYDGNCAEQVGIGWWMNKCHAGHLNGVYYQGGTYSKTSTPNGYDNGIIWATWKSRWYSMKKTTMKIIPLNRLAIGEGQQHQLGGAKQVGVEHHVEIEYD
As to the kind of experiment: SPR adsorption of fibrinogen to SAMs / grafted polymer films. Format: binding, bovine. As to conditions: mixed SAM —CONRR′/—CO2H.

For another data set, the target named is lysozyme (Gallus gallus, UniProt P00698). Kind of data set: SPR adsorption of lysozyme to SAMs / grafted polymer films. As to conditions: mixed SAM —CONRR′/—CO2H. Format: binding.
Chain of lysozyme (P00698 19-147): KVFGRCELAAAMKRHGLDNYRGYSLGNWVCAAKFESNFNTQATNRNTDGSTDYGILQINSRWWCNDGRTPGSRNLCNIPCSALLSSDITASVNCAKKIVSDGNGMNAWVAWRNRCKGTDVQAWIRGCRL

Bounds are passed on as bounds.

T1 sequence (P00921 whole entry): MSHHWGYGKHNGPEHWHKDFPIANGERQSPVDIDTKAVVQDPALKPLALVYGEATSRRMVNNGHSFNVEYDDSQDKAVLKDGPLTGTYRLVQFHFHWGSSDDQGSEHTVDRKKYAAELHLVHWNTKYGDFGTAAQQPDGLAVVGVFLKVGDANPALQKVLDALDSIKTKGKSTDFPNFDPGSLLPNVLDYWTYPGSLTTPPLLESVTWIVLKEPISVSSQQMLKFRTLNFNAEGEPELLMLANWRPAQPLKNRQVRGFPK
Chain of CA (P00921 whole entry): as above

On to `COC(=O)CNC(=O)c1ccc(S(N)(=O)=O)cc1` [benzene sulfonamide 14, H2NSO2C6H4—CONHCH2CO2CH3, reference compound], for which the Kd at CA is 63 µM. The “competitive inhibition of binding of CA to the mixed SAM presenting 13” value in data set [1] (1 mM added to the CA-containing solution) was “completely inhibited”.

With `NCCOCCOCCOCCOCCOCCOCC(=O)NCCCCCCNC(=O)c1ccc(S(N)(=O)=O)cc1` [compound 13, [6-(2-{2-[2-(2-{2-[2-(2-Amino-ethoxy)-ethoxy]-ethoxy}-ethoxy)-ethoxy]-ethoxy}-ethanoylamino)-hexyl]-4-sulfamoyl-benzamide], the “nonspecific adsorption of protein” value in data set [2] is “did not adsorb a detectable amount of protein”. Further, the “reversibility of binding of CA” value in data set [1] (CA 5 μM in PBS, mixed SAM presenting 13) is on record as above 90%. In data set [1] (SPR, CA 5 μM in PBS, surfaces of this work (entry 4, LPEI entries 6-9)), the kon was found to be 13000 M^-1S^-1. The compound further yielded a koff in data set [1] (SPR, surfaces of this work (entry 4, LPEI entries 6-9)) of 0.0054 S^-1.

On to `C[N+](C)(C)CCN.[Cl-]`, for which, in data set [3], the θco sessile was 31 degrees. In addition, on fibrinogen, the “% Fiboff (percent decrease in adsorbed protein during 10 minute PBS wash)” value came out at 6.2 ± 1% and the “dR/dton fibrinogen (maximum initial rate of adsorption)” value is listed as 300 ± 200 RU/sec. For the same compound, at fibrinogen (1 mg/mL fibrinogen flowed 3 min, relative to —CONH(CH2)10CH3/—CO2H SAM), the “% MLfib 3 min” value worked out at 17 ± 2%. Also, the “% MLfib 30 min” value on fibrinogen (1 mg/mL fibrinogen flowed 30 min) was determined as 25 ± 4%. Further, at lysozyme, the “% Lysoff (percent decrease in adsorbed protein during 10 minute PBS wash)” value was found to be 95 ± 7% and the “dR/dton lysozyme (maximum initial rate of adsorption)” value is on record as 140 ± 40 RU/sec. Also, the “% MLlys 3 min” value at lysozyme (1 mg/mL lysozyme flowed 3 min) is recorded as 3.5 ± 0.2%. Further, the “% MLlys 30 min” value at lysozyme (1 mg/mL lysozyme flowed 30 min) is on record as 3.9 ± 0.7%.
